The results in this text go back to patent publication US8815592B2, “Methods and compositions related to dopaminergic neuronal cells” (Research Development Foundation, priority 2010, dated 2014).

The structures appear in SMILES notation. Structures can show the parent of a compound that is named as a salt.

The target of series [1] is T1, dopaminergic transporter DAT (Mus musculus, UniProt Q61327).
T1 construct: After 16 days of differentiations, cells were incubated with [^3H]; Win35, 428 for 1 hour; endogenous in cells; host or cells: dopaminergic neurons differentiated from mouse embryonic stem cells (CGR8 line)
The experiment in a line: [3H] Win 35,428 binding on DAT receptor of ES-derived dopaminergic neurons, with and without GBR 12909. The settings on record: cells incubated with 10 μm GBR 12909 hydrochloride; 5 nM ligand; 6 well plates.
Procedure: Cells were incubated on binding buffer containing 5 nM of the ligand at different time (30 to 60 minutes), with and without 10 μm of GBR 12909 hydrochloride. […] Radioactivity measured by liquid scintillation counter (WALLAC).
Win 35,428 binding to DAT receptor and DA-neurons in 96-well plate, cells were plated at the density of 60 cells/well.
After 16 days of differentiations, cells were incubated with [^3H] Win35, 428 for 1 hour and then washed by binding buffer for 1 minute, following by direct counting using liquid scintillation counter (WALLAC).
In detail, the binding assay was performed at 4° C. in phosphate-buffered saline (PBS) (Invitrogen/Gibco) containing 0.32 M sucrose with Ca^2+ and Mg^2+. Cells in each well were washed one time with 0.5 ml of phosphatebuffered. Then incubated at various time (30 to 60 min) with various amounts (5 to 10 nM) of [^3H] Win 35,428. The non specific binding was determined in the presence or not of 10 μM of GBR-12909 hydrochloride. The incubation was stopped by rinsing the cells three times with ice-cold buffer to eliminate non-linked [^3H] Win 35,428 and removal of cells. Cells were detached by a rake and transferred into a 96 well plate. Radioactivity was measured by a liquid scintillation counter (WALLAC).

The test system of series [2] is Engineered neural tissues (ENTs). The series is described as follows: Neurotoxicology testing platform, electrical activity of engineered neural tissues. Conditions: ENTs (FIG. 13). The class given is cell-based, mouse. The method, then:
Engineered neural tissues (ENTs) (a similar scheme could be applied to dopaminergic neurons provided according to certain aspects of the present invention) can be used for establishment of a neurotoxicology testing platform (FIG. 12). […] Mouse ENTs differentiated for 21 days were exposed to putative neurotoxic for 24 hours and spontaneous electrical activity was measured for the neurotoxicity testing (FIG. 14). Electrophysiological characterizations of ENTs include characterization of spontaneous activity such as spike frequency, spike amplitude, burst frequency (number of bursts per second), or number of spikes per burst, or characterization of evoked filed potentials such as amplitude of responses, paired-pulse inhibition, or input/output curve. The electrophysiological characterization of ENTs can be carried out by a multi-electrode array (FIG. 16).

T1 sequence (Q61327 whole entry): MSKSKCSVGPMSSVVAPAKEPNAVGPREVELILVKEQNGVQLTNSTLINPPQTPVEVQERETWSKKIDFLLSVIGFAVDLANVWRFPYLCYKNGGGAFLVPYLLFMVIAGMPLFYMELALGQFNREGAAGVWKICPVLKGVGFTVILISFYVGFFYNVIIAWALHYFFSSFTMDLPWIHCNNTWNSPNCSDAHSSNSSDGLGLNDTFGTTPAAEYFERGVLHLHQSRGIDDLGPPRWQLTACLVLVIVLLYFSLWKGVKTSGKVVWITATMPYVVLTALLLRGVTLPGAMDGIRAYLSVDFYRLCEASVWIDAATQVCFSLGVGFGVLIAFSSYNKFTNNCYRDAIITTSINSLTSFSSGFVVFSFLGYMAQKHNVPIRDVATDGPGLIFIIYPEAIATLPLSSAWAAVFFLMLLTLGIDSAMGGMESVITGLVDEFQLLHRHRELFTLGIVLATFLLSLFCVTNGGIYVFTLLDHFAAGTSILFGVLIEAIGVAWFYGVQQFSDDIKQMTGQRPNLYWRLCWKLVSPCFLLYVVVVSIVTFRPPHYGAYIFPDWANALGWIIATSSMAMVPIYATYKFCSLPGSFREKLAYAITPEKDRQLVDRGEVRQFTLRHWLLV

For the molecule `Fc1ccc(C(OCCN2CCN(CCCc3ccccc3)CC2)c2ccc(F)cc2)cc1` [GBR 12909 hydrochloride], the “non-specific binding as share of the total binding of [3H] Win 35,428” value in series [1] came to 50%.
With `COc1cc2c(c(OC)c1OC)-c1ccc(OC)c(=O)cc1[C@@H](NC(C)=O)CC2` [colchicine], the epileptogenic activity result in series [2] is “demonstrated”.
